Experimental data taken from patent US20240239801A1, “PYRIMIDO[5,4,D]PYRIMIDINE COMPOUNDS, COMPOSITIONS COMPRISING THEM AND USES THEREOF” (Université de Montréal, priority 2021, published 2024).
Like-named read-outs stand apart in the source and are kept apart here.

What was measured:
[1] = biological target: T1, BRAF (Homo sapiens, UniProt P15056); assay: BRAF kinase activity assay (ADP-Glo); format: biochemical
T1 construct: GST; purchased Millipore Sigma B4062-10UG
Protocol: (§1) Compound preparation: solid samples of each substances in 1dram vials were suspended in DMSO (Fisher Scientific) at a stock concentration of 20 mM. Stocks were kept at −20° C. and protected from light. If solubility of the compound at 20 mM appeared to be an issue, the initial concentration of the DMSO stock was changed to 10 mM or 5 mM.
(§2) In vitro enzymatic reactions were used for evaluating compounds intrinsic activity against BRAF, CRAF and ARAF. For BRAF and CRAF, 0.375 nM of purified GST-tagged kinases (cat #B4062-10UG and cat #R1656-10UG respectively from Millipore Sigma) were incubated with 75 nM of kinase-dead MEK1 substrate (cat #40075; BPS Bioscience) in the presence of 10 μM of Ultrapure ATP (cat #V9102; Promega; part V915A) with and without the test compound in a buffer containing 50 mM HEPES pH 7.5, 10 mM MgCl2, 1 mM EDTA, 0.01% Brij-35 and 2 mM DTT. Separate reactions were performed with the MEK1 substrate and ATP as a blank control. ARAF, kinase reactions were rigorously the same with the exception that kinase concentration was raised to 3.75 nM (cat #1768-0000-1; Reaction Biology).
(§3) For compound treatment, 5 μL/well of test substance solution are placed in a 384-well proxyplate (Perkin Elmer) and mixed with 2× concentrated kinase reactions. The dilution series is selected so that nine concentrations cover a range from 100 nM to 0.01 nM. […] The final concentration of DMSO in the assay is set at 0.05%.
(§4) BRAF and CRAF kinase reactions were carried out for a total of 2 hours at 30° C. and then stopped by ½ dilution in ADP-Glo Reagent (cat #V9102; Promega; part V912C). Reactions were then incubated for 1 h at room temperature before addition of one volume of Kinase Detection Reagent (cat #V9102; Promega; part V917A). Plates were then equilibrated at room temperature for 30 minutes before detection of luminescence on a Synergy Neo2 plate reader (Biotek). The effect of each compound dilution on BRAF and CRAF kinase activity was expressed as % inhibition and calculated as follows. First, the internal 100% inhibition control (average of luminescence in kinase reactions comprising kinase dead MEK1 substrate alone) was subtracted from each data point. The average of DMSO (vehicle) controls (set as 0% inhibition) was established and used to calculate % inhibition:
(§5) IC50 values were obtained by plotting the kinase inhibition values and fitting the dose-activity curves using a log(agonist) versus response−variable slope (four parameters) function using either GraphPadPrism (V7.0) or Dotmatics Screening Ultra platform. Standards included in the ARAF kinase assay were Belvarafenib (MedChem Express cat #HY-109080; CAS #1446113-23-0), LXH254 (MedChem Express cat #HY-112089; CAS #1800398-38-2) and BGB283 (cat #HY-18957; CAS #1446090-79-4).

[2] = biological target: CRAF (Homo sapiens, UniProt P04049); assay: CRAF kinase activity assay (ADP-Glo); format: biochemical
Protocol: as §1, §2, §3, §4, §5

[3] = system: HCT116 pERK; assay: Phospho-ERK inhibition, AlphaLISA SureFire Ultra p-ERK 1/2; format: cell-based, human; conditions: for HCT116 (Ymin %): lowest value of the pERK IC50 curve; for HCT116 pERK % Ymin (lowest value of the IC50 curve): value in brackets, Ymin above −20% = minimal or no paradoxical induction
How it was run: (§6)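 IC50 derived by four-parameter fitting of % inhibition, with DMSO as 0% and 1 μM trametinib subtracted as background. Signal is AlphaLISA p-ERK1/2 (Thr202/Tyr204) in lysates of overnight-seeded cells (RPMI-1640, 5% FBS) treated 1 h with ten concentrations from 30 or 10 μM to 0.33 nM, 0.5% DMSO.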

[4] = system: SW480 pERK; assay: as above; format: cell-based, human; conditions: for IC50: 1 h treatment; for SW480 (Ymin %): lowest value of the pERK IC50 curve
How it was run: as §6

[5] = Table 3, read-out: SW480 PERK IC50

Chain of CRAF (P04049 whole entry): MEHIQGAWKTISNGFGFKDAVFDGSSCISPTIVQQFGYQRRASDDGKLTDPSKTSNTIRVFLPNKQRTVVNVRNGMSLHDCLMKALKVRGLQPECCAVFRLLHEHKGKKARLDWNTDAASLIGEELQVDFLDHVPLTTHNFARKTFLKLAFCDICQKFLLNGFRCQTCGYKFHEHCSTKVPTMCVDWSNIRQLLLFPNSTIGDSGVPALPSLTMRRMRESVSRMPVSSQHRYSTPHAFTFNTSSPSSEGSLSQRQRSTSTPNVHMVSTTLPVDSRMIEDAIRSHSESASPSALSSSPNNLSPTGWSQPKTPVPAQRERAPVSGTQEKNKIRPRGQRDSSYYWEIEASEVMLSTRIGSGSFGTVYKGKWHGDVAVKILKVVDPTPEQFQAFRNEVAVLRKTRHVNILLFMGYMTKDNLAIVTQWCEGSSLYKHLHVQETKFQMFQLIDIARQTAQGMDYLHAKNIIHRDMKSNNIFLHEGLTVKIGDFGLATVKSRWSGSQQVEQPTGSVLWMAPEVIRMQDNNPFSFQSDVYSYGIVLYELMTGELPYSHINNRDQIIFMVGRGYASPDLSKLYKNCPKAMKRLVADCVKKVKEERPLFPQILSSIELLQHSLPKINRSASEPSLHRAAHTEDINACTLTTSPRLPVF
T1 sequence (P15056 whole entry): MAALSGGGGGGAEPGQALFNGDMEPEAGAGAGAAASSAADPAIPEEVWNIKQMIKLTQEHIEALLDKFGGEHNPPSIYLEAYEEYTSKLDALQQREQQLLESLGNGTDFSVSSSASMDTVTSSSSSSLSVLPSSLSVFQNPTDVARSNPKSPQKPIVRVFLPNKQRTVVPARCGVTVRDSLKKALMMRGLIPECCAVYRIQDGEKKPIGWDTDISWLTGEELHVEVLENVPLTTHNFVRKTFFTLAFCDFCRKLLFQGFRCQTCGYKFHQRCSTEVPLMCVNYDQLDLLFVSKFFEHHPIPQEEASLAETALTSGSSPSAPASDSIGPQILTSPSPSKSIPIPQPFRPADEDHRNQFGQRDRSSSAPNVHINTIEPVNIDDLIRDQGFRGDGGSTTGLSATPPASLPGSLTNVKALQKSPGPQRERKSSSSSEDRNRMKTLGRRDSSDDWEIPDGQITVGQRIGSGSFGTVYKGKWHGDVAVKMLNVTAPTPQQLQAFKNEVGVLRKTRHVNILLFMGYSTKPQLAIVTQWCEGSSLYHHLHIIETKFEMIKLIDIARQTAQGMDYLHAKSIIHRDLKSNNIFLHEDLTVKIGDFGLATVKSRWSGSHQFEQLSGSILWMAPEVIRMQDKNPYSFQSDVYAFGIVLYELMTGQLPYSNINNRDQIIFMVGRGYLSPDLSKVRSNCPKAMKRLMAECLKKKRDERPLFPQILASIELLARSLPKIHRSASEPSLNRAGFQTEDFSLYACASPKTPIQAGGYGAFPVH

Row | SMILES | IC50 ([1]; Table 3) | IC50 ([2]; Table 3) | IC50 ([3]; Table 3, 1 h treatment) | HCT116 (Ymin %) ([3]; Table 3) | other results
1 | COc1ccc(S(=O)(=O)Nc2ccc(F)c(Nc3ncnc4cnc(SC)nc34)c2F)cc1 [Example 1] |  |  |  |  | IC50 ([1]; Table 2): > 10 nM; IC50 ([2]; Table 2): > 50 nM; IC50 ([3]; Homo sapiens, HCT-116, Table 2, 1 h treatment): 10000 to 30000 nM; IC50 ([4]; Homo sapiens, SW480, Table 2, read-out: SW480 PERK IC50 (UM)): 1000 to 10000 nM; SW480 (Ymin %) ([4]; Table 2): 6%
2 | COc1ccc(S(=O)(=O)Nc2ccc(F)c(Nc3ncnc4cnc(N5CC[C@H](F)C5)nc34)c2F)c(C)c1 [Example 57] | > 10 nM | > 50 nM | 1000 to 10000 nM | −2% | IC50 [4, 5]: 1000 to 10000 nM; SW480 (Ymin %) ([4]; Table 3): −2%
3 | Cc1ncn(-c2ncc3ncnc(Nc4c(F)ccc(NS(=O)(=O)c5ccc(Cl)cc5Cl)c4F)c3n2)c1C [Example 62] | 1 to 10 nM | 10 to 50 nM | 1000 to 10000 nM | 11% | IC50 [4, 5]: 500 to 1000 nM; SW480 (Ymin %) ([4]; Table 3): 2%
4 | O=S(=O)(Nc1ccc(F)c(Nc2ncnc3cnc(-n4cnc5ccccc54)nc23)c1F)c1ccc(Cl)cc1Cl [Example 63] | 1 to 10 nM | < 10 nM | 1000 to 10000 nM | −2% | IC50 [4, 5]: 1000 to 10000 nM; SW480 (Ymin %) ([4]; Table 3): 1%
5 | O=S(=O)(Nc1ccc(F)c(Nc2ncnc3cnc(-n4cnc5ccccc54)nc23)c1F)c1cccc(Cl)c1Cl [Example 81] | < 1 nM | < 10 nM |  |  | IC50 ([3]; Homo sapiens, HCT-116, Table 3, 1 h treatment): < 500 nM; IC50 ([4]; Homo sapiens, SW480, Table 3, read-out: SW480 PERK IC50): < 500 nM; SW480 (Ymin %) ([4]; Table 3): 3%
6 | Cc1c(F)cccc1S(=O)(=O)Nc1ccc(F)c(Nc2ncnc3cnc(-n4cnc5c(N)cccc54)nc23)c1F [Example 82] | 1 to 10 nM | < 10 nM | < 500 nM | −10% | IC50 [4, 5]: < 500 nM; SW480 (Ymin %) ([4]; Table 3): 3.2%
7 | O=S(=O)(Nc1ccc(F)c(Nc2ncnc3cnc(-n4nnc5c(N6CCN(CCO)CC6)cccc54)nc23)c1F)c1cccc(Cl)c1Cl [Example 139] | < 1 nM | < 10 nM | < 500 nM | 2% | 
8 | O=S(=O)(Nc1ccc(F)c(Nc2ncnc3cnc(-n4cnc5c(N6CC(CF)C6)cccc54)nc23)c1F)c1cccc(Cl)c1Cl [Example 140] | > 10 nM | 10 to 50 nM | < 500 nM | −16% | 
9 | CCS(=O)(=O)c1cn(-c2ncc3ncnc(Nc4c(F)ccc(NS(=O)(=O)c5cccc(Cl)c5Cl)c4F)c3n2)c2ccccc12 [Example 141] | 1 to 10 nM | 10 to 50 nM | < 500 nM | −3% | 
10 | O=S(=O)(Nc1ccc(F)c(Nc2ncnc3cnc(-n4cc(S(=O)(=O)C5CCOCC5)c5ccccc54)nc23)c1F)c1cccc(Cl)c1Cl [Example 142] | < 1 nM | < 10 nM | < 500 nM | −15% | 
11 | O=S(=O)(Cc1ccncc1)c1cn(-c2ncc3ncnc(Nc4c(F)ccc(NS(=O)(=O)c5cccc(Cl)c5Cl)c4F)c3n2)c2ccccc12 [Example 143] | 1 to 10 nM | 10 to 50 nM | < 500 nM | −7% | 
12 | O=S(=O)(CC1CCOCC1)c1cn(-c2ncc3ncnc(Nc4c(F)ccc(NS(=O)(=O)c5cccc(Cl)c5Cl)c4F)c3n2)c2ccccc12 [Example 144] | 1 to 10 nM | 10 to 50 nM | < 500 nM | −9% | 
13 | CN(C)C1CCN(c2cccc3c2ncn3-c2ncc3ncnc(Nc4c(F)ccc(NS(=O)(=O)c5cccc(Cl)c5Cl)c4F)c3n2)CC1 [Example 145] | < 1 nM | < 10 nM | < 500 nM | −8% | 
14 | O=S(=O)(Nc1ccc(F)c(Nc2ncnc3cnc(-n4cnc5c(N6CCN(CCO)CC6)cccc54)nc23)c1F)c1cccc(Cl)c1Cl [Example 146] | < 1 nM | < 10 nM | < 500 nM | −9% | 
15 | O=S(=O)(Nc1ccc(F)c(Nc2ncnc3cnc(-n4cnc5c(N6CC(CCO)C6)cccc54)nc23)c1F)c1cccc(Cl)c1Cl [Example 147] | 1 to 10 nM | 10 to 50 nM | < 500 nM | −9% | 
16 | CCc1ccccc1S(=O)(=O)Nc1ccc(F)c(Nc2ncnc3cnc(-n4cnc5ccccc54)nc23)c1F [Example 148] | > 10 nM | 10 to 50 nM | 1000 to 10000 nM | −1% | 
17 | CCc1ccccc1S(=O)(=O)Nc1ccc(F)c(Nc2ncnc3cnc(-n4cnc5c(N6CCC(O)(CC)CC6)cccc54)nc23)c1F [Example 149] | > 10 nM | 10 to 50 nM | < 500 nM | 4% | 
18 | O=S(=O)(Nc1ccc(F)c(Nc2ncnc3cnc(-n4cnc5ccccc54)nc23)c1F)c1cccc2c1OC(F)(F)O2 [Example 150] | 1 to 10 nM | 10 to 50 nM | 1000 to 10000 nM | −8% | 
19 | CCC1(O)CCN(c2cccc3c2ncn3-c2ncc3ncnc(Nc4c(F)ccc(NS(=O)(=O)c5cccc6c5OC(F)(F)O6)c4F)c3n2)CC1 [Example 151] | 1 to 10 nM | 10 to 50 nM | < 500 nM | 10% | 
20 | Cc1cccc(S(=O)(=O)Nc2ccc(F)c(Nc3ncnc4cnc(-n5cnc6ccccc65)nc34)c2F)c1Cl [Example 152] | 1 to 10 nM | > 50 nM | 1000 to 10000 nM | −15% | 
21 | CCC1(O)CCN(c2cccc3c2ncn3-c2ncc3ncnc(Nc4c(F)ccc(NS(=O)(=O)c5cccc(C)c5Cl)c4F)c3n2)CC1 [Example 153] | 1 to 10 nM | 10 to 50 nM | < 500 nM | −6% | 
22 | Cc1c(S(=O)(=O)Nc2ccc(F)c(Nc3ncnc4cnc(-n5cnc6ccccc65)nc34)c2F)ccc(F)c1F [Example 154] | 1 to 10 nM | > 50 nM | 500 to 1000 nM | 3% | 
23 | CCC1(O)CCN(c2cccc3c2ncn3-c2ncc3ncnc(Nc4c(F)ccc(NS(=O)(=O)c5ccc(F)c(F)c5C)c4F)c3n2)CC1 [Example 155] | 1 to 10 nM | > 50 nM | < 500 nM | −8% | 
24 | O=S(=O)(Nc1ccc(F)c(Nc2ncnc3cnc(-n4cnc5ccccc54)nc23)c1F)c1cccc(Cl)c1C(F)(F)F [Example 156] | 1 to 10 nM | < 10 nM | 500 to 1000 nM |  | 
25 | O=S(=O)(Nc1ccc(F)c(Nc2ncnc3cnc(-n4cnc5ccccc54)nc23)c1F)c1scc(Cl)c1Cl [Example 157] | < 1 nM | < 10 nM | < 500 nM | 0% | 
26 | CCC1(O)CCN(c2cccc3c2ncn3-c2ncc3ncnc(Nc4c(F)ccc(NS(=O)(=O)c5cccc(Cl)c5C(F)(F)F)c4F)c3n2)CC1 [Example 158] | 1 to 10 nM | < 10 nM | < 500 nM | −1% | 
27 | O=S(=O)(Nc1cc(F)c(F)c(Nc2ncnc3cnc(-n4cnc5ccccc54)nc23)c1F)c1cccc(Cl)c1Cl [Example 160] |  |  |  |  | IC50 ([1]; BRAF biochemical kinase assay): 1 to 10 nM; IC50 ([2]; CRAF biochemical kinase assay): < 10 nM; IC50 ([3]; HCT116 cells, pERK): < 500 nM; HCT116 pERK % Ymin (lowest value of the IC50 curve) ([3]; HCT116 cells): −9%
28 | O=S(=O)(Nc1cc(F)c(F)c(Nc2ncnc3cnc(-n4nnc5ccccc54)nc23)c1F)c1cccc(Cl)c1Cl [Example 161] |  |  |  |  | IC50 ([1]; BRAF biochemical kinase assay): 1 to 10 nM; IC50 ([2]; CRAF biochemical kinase assay): < 10 nM; IC50 ([3]; HCT116 cells, pERK): 1000 to 10000 nM; HCT116 pERK % Ymin (lowest value of the IC50 curve) ([3]; HCT116 cells): −2.7%
